Measured values taken from US8916570B2 (The United States of America, as represented by the …, priority 2008, dated 2014).

Key:
[1] = molecular target: mouse A2A adenosine receptor (Mus musculus, UniProt Q60613); experiment: Competition radioligand binding, mouse A2A AR, HEK293 membranes (Table 1); conditions: for inhibition at 100 µM: read-out: A2A % inhib.
[2] = molecular target: human A2A adenosine receptor (Homo sapiens, UniProt P29274); experiment: Radioligand binding, human A2A AR (Table 1); conditions: for inhibition at 10 µM: read-out: A2A % inhib.
human A2A adenosine receptor, sequence (P29274 whole entry): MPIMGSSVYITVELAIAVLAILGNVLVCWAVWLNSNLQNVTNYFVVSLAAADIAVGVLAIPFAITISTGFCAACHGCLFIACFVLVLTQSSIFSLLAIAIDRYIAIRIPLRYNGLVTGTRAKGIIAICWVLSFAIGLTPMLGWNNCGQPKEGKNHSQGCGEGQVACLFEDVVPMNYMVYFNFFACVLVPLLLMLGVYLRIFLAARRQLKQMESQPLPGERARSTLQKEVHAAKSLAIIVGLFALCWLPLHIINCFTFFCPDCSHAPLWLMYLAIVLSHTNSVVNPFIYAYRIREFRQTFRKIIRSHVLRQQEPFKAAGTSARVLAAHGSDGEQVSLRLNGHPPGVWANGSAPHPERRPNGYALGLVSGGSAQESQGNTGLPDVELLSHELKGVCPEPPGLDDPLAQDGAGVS

[3] = molecular target: T1, human A3 adenosine receptor (Homo sapiens, UniProt P0DMS8); experiment: [125I]I-AB-MECA binding, human A3 AR, CHO membranes (Table 1); conditions: for Ki: A3 Ki, species H (human); for Selectivity A1/A3: human
T1 sequence (P0DMS8 1-318): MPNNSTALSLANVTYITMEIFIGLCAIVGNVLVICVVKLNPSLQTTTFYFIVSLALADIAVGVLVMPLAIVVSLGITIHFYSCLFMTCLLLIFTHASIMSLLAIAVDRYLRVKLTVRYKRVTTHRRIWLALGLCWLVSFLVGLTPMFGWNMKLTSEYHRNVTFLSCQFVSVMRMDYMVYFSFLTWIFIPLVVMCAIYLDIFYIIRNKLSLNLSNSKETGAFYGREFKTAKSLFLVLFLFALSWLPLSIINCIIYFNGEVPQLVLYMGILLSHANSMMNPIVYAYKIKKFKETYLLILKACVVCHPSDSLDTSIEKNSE

[4] = molecular target: T2, mouse A3 adenosine receptor (Mus musculus, UniProt Q61618); experiment: Competition radioligand binding, mouse A3 AR, HEK293 membranes (Table 1); conditions: for Ki: A3 Ki, species M (mouse), [125I]I-AB-MECA; for Selectivity A1/A3: mouse
T2 sequence (Q61618 1-319): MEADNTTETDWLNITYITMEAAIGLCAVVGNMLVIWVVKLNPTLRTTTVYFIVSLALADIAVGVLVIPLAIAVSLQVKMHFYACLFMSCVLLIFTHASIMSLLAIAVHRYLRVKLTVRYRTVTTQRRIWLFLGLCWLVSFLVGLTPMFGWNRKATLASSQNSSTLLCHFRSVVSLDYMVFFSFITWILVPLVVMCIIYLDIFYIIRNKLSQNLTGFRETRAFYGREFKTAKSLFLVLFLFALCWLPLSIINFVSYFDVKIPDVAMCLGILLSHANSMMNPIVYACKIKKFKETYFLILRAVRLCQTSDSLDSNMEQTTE

[5] = molecular target: T3, human A1 adenosine receptor (Homo sapiens, UniProt P30542); experiment: Radioligand binding, human A1 AR, CHO membranes (Table 1); conditions: for A1 % inhib.: species H (human), percent in parentheses, concentration not marked
T3 sequence (P30542 1-326): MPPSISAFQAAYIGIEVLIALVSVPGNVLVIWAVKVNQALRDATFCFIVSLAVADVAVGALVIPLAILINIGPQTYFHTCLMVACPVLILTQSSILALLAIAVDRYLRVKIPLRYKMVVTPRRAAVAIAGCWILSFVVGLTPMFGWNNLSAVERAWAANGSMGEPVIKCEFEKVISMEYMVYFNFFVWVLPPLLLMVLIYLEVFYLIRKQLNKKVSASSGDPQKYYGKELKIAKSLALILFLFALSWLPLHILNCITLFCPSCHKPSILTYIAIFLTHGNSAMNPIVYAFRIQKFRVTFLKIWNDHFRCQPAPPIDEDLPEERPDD

[6] = molecular target: T4, mouse A1 adenosine receptor (Mus musculus, UniProt Q60612); experiment: Competition radioligand binding, mouse A1 AR, HEK293 membranes (Table 1)
T4 sequence (Q60612 1-326): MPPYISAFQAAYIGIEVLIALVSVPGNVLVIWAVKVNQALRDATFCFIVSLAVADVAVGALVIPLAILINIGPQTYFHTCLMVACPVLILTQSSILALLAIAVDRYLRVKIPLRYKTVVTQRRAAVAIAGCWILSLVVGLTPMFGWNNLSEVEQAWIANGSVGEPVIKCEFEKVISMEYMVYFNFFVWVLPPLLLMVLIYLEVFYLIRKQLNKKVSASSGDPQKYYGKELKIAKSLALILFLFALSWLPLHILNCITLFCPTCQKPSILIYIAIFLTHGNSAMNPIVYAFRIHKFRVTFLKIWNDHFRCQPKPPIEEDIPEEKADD

human A3AR = molecular target: T5, human A3AR (Homo sapiens, UniProt P0DMS8); experiment: Inhibition of forskolin-stimulated cyclic AMP production in AR transfected CHO cells (Table 1); assay type: cell-based; conditions: CHO; read-out: % Efficacy at the human A3 AR
T5 construct: expressed in transfected cells; host or cells: CHO
T5 sequence (P0DMS8 1-318): T1 sequence (P0DMS8 1-318)

mouse A2A adenosine receptor, sequence (Q60613 whole entry): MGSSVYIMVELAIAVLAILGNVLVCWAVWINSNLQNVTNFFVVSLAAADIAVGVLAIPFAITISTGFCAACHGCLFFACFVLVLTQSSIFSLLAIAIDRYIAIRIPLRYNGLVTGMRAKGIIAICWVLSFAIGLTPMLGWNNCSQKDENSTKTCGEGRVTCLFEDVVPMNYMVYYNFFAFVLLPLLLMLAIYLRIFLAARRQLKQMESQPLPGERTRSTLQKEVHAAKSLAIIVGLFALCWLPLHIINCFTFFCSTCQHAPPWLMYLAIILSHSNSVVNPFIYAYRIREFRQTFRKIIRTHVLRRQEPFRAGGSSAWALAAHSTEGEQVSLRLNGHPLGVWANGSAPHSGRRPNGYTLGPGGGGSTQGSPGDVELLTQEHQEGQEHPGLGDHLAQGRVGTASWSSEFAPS

Structure (SMILES)	inhibition at 100 µM [1] [%]	Ki [2] [nM]	inhibition at 10 µM [2] [%]	Ki [3] [nM]	Ki [4] [nM]	Selectivity A1/A3 [4]	Ki [5] [nM]	Ki [6] [nM]	A1 % inhib. [5]	also measured
CNC(=O)C12CC1C(n1cnc3c(NCc4cccc(Cl)c4)nc(I)nc31)C(O)C2O (stereo not drawn) [Compound 1]	40	> 10000	–	–	–	–	–	–	–	–
CNC(=O)C12CC1C(n1cnc3c(NCc4cc(OC)ccc4OC)nc(I)nc31)C(O)C2O (stereo not drawn) [Compound 2, (1′S,2′R,3′S,4′S,5′S)-4′-[6-(2,5-Dimethoxybenzylamino)-2-iodopurin-9-yl]-2′,3′-dihydroxybicyclo[3.1.0]hexane-1′-carboxylic acid N-methylamide]	14	–	35	–	–	–	–	–	–	–
CNC(=O)C12CC1C(n1cnc3c(NCc4cccc(Cl)c4)nc(C#C[Si](C)(C)C)nc31)C(O)C2O (stereo not drawn) [Compound 4, (1′S,2′R,3′S,4′S,5′S)-4′-[6-(3-Chlorobenzylamino)-2-trimethylsilylethynyl-9-yl]-2′,3′-dihydroxybicyclo[3.1.0]hexane-1′-carboxylic acid N-methylamide]	20	–	52	0.98 ± 0.14	4.46 ± 0.57	35.6	160 ± 40	159 ± 22	–	Selectivity A1/A3 [3]: 160
CNC(=O)C12CC1C(n1cnc3c(NCc4cccc(Cl)c4)nc(C#CCCCC(=O)OC)nc31)C(O)C2O (stereo not drawn) [Compound 6, (1′S,2′R,3′S,4′S,5′S)-4′-[6-(3-Chlorobenzylamino)-2-(5-methoxycarbonyl-1-pentynyl)-9-yl]-2′,3′-dihydroxybicyclo[3.1.0]hexane-1′-carboxylic acid N-methylamide]	50	–	49	–	4.65 ± 0.53	–	482 ± 23	1340 ± 330	–	–
CNC(=O)C12CC1C(n1cnc3c(NCc4cccc(Cl)c4)nc(C#CCCCC(=O)O)nc31)C(O)C2O (stereo not drawn) [Compound 7, (1′S,2′R,3′S,4′S,5′S)-4′-[6-(3-chlorobenzylamino)-2-(5-hydroxycarbonyl-1-pentynyl)-9-yl]-2′,3′-dihydroxybicyclo[3.1.0]hexane-1′-carboxylic acid N-methylamide]	8	–	43	–	–	–	–	–	–	–
CNC(=O)C12CC1C(n1cnc3c(NCc4cccc(Cl)c4)nc(C#CCCCC(=O)NCCN)nc31)C(O)C2O (stereo not drawn) [Compound 8]	31	–	81	2.17 ± 0.51	8.6 ± 1.02	64	454 ± 44	546 ± 62	–	Selectivity A1/A3 [3]: 209
CNC(=O)C12CC1C(n1cnc3c(NCc4cccc(C#CCCCC(=O)O)c4)nc(Cl)nc31)C(O)C2O (stereo not drawn) [Compound 9]	5	–	14	–	–	–	–	–	–	–
CNC(=O)C12CC1C(n1cnc3c(NCc4cccc(C#CCCCC(=O)NCCN)c4)nc(Cl)nc31)C(O)C2O (stereo not drawn) [Compound 10]	39	–	58	5.21	11.9 ± 2.4	13	271 ± 23	151 ± 18	–	Selectivity A1/A3 [3]: 52
CNC(=O)C12CC1C(n1cnc3c(NCc4cccc(C#CCCCC(=O)NCCNC(C)=O)c4)nc(Cl)nc31)C(O)C2O (stereo not drawn) [Compound 11]	68	–	80	–	–	–	–	–	–	–
CNC(=O)C12CC1C(n1cnc3c(NCC(c4ccccc4)c4ccccc4)nc(Cl)nc31)C(O)C2O (stereo not drawn) [Compound 18]	–	–	–	–	1.67 ± 0.09	4.1	–	6.83 ± 1.5	–	Ki [1]: 1810 ± 581 nM
CNC(=O)C12CC1C(n1cnc3c(NCc4cccc(Cl)c4)nc(SC)nc31)C(O)C2O (stereo not drawn) [Compound 20]	32	10000	–	1.5	1.19 ± 0.09	83	610	98.9 ± 18.8	–	–
CNC(=O)C12CC1C(n1cnc3c(NOC)nc(Cl)nc31)C(O)C2O (stereo not drawn) [Compound 21, (1′S,2′R,3′S,4′S,5′S)-4′-[6-Methoxyamino-2-chloropurin-9-yl]-2′,3′-dihydroxybicyclo[3.1.0]hexane-1′-carboxylic acid N-methylamide]	2	–	2	149 ± 15	877 ± 149	1.3	265 ± 45	1160 ± 130	–	Selectivity A1/A3 [3]: 1.8
CNC(=O)C12CC1C(n1cnc3c(NCc4cccc(Cl)c4)nc(C#CCCC(=O)O)nc31)C(O)C2O (stereo not drawn) [Compound 33]	–	–	–	61.1 ± 35.8	–	–	–	–	–	Emax at 10 µM (human A3AR): 106 ± 17.7%
CNC(=O)C12CC1C(n1cnc3c(NCc4cccc(Cl)c4)nc(C#CCCCCC(=O)O)nc31)C(O)C2O (stereo not drawn) [Compound 34]	–	–	–	12.4 ± 1.8	–	–	–	–	(5 ± 3%)	–
CNC(=O)C12CC1C(n1cnc3c(NCc4cccc(Cl)c4)nc(C#CCCC(=O)NCCN)nc31)C(O)C2O (stereo not drawn) [Compound 37, (1′S, 2′R, 3′S, 4′S, 5′S)-4′-[6-(3-Chlorobenzylamino) 2-(4-(β-aminoethylaminocarbonyl)-1-butynyl)-9-yl]-2′,3′-dihydroxybicyclo[3.1.0]hexane-1′-carboxylic acid N-methylamide]	–	550 ± 83	–	2.5 ± 0.5	–	–	–	–	(25 ± 12%)	Selectivity A1/A3 [3]: up to 1900
CNC(=O)C12CC1C(n1cnc3c(NCc4cccc(Cl)c4)nc(C#CCCCCC(=O)NCCN)nc31)C(O)C2O (stereo not drawn) [Compound 38, (1′S,2′R,3′S,4′S,5′S)-4′-[6-(3-Chlorobenzylamino)-2-(6-(β-aminoethylaminocarbonyl)-1-hexynyl)-9-yl]-2′,3′-dihydroxybicyclo[3.1.0]hexane-1′-carboxylic acid N-methylamide]	–	277 ± 33	–	3.4 ± 0.7	–	–	–	–	(21 ± 6%)	–
CNC(=O)C12CC1C(n1cnc3c(NCc4cccc(Cl)c4)nc(C#CCCC(=O)NCCCN)nc31)C(O)C2O (stereo not drawn) [Compound 39, (1′S, 2′R, 3′S, 4′S, 5′S)-4′-[6-(3-Chlorobenzylamino)-2-(4-(β-aminopropylaminocarbonyl)-1-butynyl)-9-yl]-2′,3′-dihydroxybicyclo[3.1.0]hexane-1′-carboxylic acid N-methylamide]	–	979 ± 181	–	3.1 ± 0.4	–	–	–	–	(16 ± 4%)	–
CNC(=O)C12CC1C(n1cnc3c(NCc4cccc(Cl)c4)nc(C#CCCC(=O)NCCNCCN)nc31)C(O)C2O (stereo not drawn) [Compound 41]	–	890 ± 110	–	15.4 ± 4.4	–	–	–	–	(14 ± 8%)	–
CNC(=O)C12CC1C(n1cnc3c(NCc4cccc(Cl)c4)nc(C#CCCC(=O)NCCNC(=O)CCCCC4SCC5NC(=O)NC54)nc31)C(O)C2O (stereo not drawn) [Compound 42, (1′S,2′R,3′S,4′S,5′S)-4′-[6-(3-Chlorobenzylamino)-2-(N-biotinyl(β-aminoethylaminocarbonyl)-1-butynyl)-9-yl]-2′,3′-dihydroxybicyclo[3.1.0]hexane-1′-carboxylic acid N-methylamide]	–	–	–	36.4 ± 5.6	–	–	–	–	(13 ± 6%)	–
CCN1C(=CC=CC=CC2=[N+](CCCCCC(=O)NCCNC(=O)CCC#Cc3nc(NCc4cccc(Cl)c4)c4ncn(C5C(O)C(O)C6(C(=O)NC)CC56)c4n3)c3ccc(S(=O)(=O)[O-])cc3C2(C)C)C(C)(C)c2cc(S(=O)(=O)O)ccc21 (stereo not drawn) [Compound 44, (1′S,2′R,3′S,4′S,5′S)-4′-[6-(3-Chlorobenzylamino)-2-(N-Cyanine(β-aminoethylaminocarbonyl)-1-butynyl)-9-yl]-2′,3′-dihydroxybicyclo[3.1.0]hexane-1′-carboxylic acid N-methylamide]	–	–	–	–	–	–	–	–	(10 ± 4%)	–
